pIC50: −log10 of the molar value. Values joined by “and” are separate entries in the source; they are usually repeats but may differ in a detail not shown here. Equal entries are not always repeated.
Target: T1, GPR73 (prokineticin 1 receptor) (Homo sapiens, UniProt Q8TCW9)
T1 construct: expressed in transfected cells; host or cells: HEK 293
Test: PK1 functional assay: Ca2+ mobilization screening for PK1 antagonists on the FLIPR
Type: cell-based
Details: HEK 293 GPR73 cells, multiple values = multiple testing; for inhibition at 10 µM: HEK293, 10 μM compound, read-out: Ca^2+ Mobilization % Inh @ 10 μM; for pIC50: PK1 ligand preparation at its EC50, read-out: Ca^2+ Mobilization IC50; for Ca^2+ Mobilization % Inh @ 10 μM: 10 μM compound
Method: At a time of 24 h prior to running the assay, in cell culture media (DMEM containing high Glucose and L-glutamine, 10% FBS, 1% Pen/Streptomycin, 1% Sodium Pyruvate, 20 mM HEPES, Zeocin 200 mg/L), 100 μL of 1.3*10^6/ml HEK 293 GPR73 (prokineticin 1 receptor) expressing cells were plated in a 96 well poly-d-lysine coated plate (Costar), and incubated at 37 C and 5% CO2. On the day in which the assay was run, the media was removed and 200 μL of 5× Calcium Plus Dye (Molecular Devices) which was previously resuspended with 200 mL of assay buffer [HBSS w/Ca^2+ and Mg^2+ w/o phenol red, 20 mM HEPES, 0.1% BSA, 10 mL probenecid (710 mg probenecid in 5 mL of 1N NaOH, to which was then added 5 mL HBSS containing 20 mM HEPES)] was added to each well of the 96-well plate. The plate was incubated at 37 C and 5% CO2 for 30 min in dark. The plate was removed and allowed to reach RT for 15 min in the dark. The assay was then run on the FLIPR. In Brief: base line read for 1 min, compound added (25 μL) and incubated for 4 min, 15 seconds, PK1 ligand preparation added (25 μL) for a final concentration of a previously determined EC50 and fluorescence was counted for 1 min, 45 seconds. Baseline is described as the amount of relative fluorescence read when buffer alone is added to cells. Baseline was subtracted from all wells. Percent of control was calculated as follows:
(Baseline subtracted well value is divided by baseline subtracted max value)*100. Percent inhibition is 100 minus the percent of control value.
The IC50 is defined as the amount of a given compound required to inhibit 50% of the maximum signal that is generated by the concentration of PK1 preparation used in our assay. IC50 values were calculated using GraphPad Prism.

T1 sequence (Q8TCW9 whole entry, species assumed): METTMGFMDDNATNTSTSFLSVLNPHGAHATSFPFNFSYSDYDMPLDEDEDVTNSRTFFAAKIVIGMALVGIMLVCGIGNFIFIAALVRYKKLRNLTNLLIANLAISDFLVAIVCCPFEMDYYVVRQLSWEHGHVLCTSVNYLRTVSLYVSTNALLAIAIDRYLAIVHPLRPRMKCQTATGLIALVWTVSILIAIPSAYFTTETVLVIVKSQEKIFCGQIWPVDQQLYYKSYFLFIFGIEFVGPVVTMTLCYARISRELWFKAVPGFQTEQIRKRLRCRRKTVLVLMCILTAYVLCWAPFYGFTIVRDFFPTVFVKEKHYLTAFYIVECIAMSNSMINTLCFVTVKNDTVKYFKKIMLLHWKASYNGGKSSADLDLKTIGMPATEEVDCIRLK

SMILES	inhibition at 10 µM	pIC50	Ca^2+ Mobilization % Inh @ 10 μM
COc1ccc(Cn2c(=O)nc(NCc3cnc(C)cc3C)n(Cc3cc4ccccc4o3)c2=O)cc1 [Cpd 102]	99%	6.96	–
CCCCCCn1c(NCc2cnc(C)cc2C)nc(=O)n(Cc2ccc(OC)cc2)c1=O [Cpd 103]	41%	< 5.00	–
COc1ccc(Cn2c(=O)nc(NCc3cnc(C)cc3C)n(Cc3ccc(OC)nc3)c2=O)cc1 [Cpd 104]	96%	6.71	–
COc1ccc(Cn2c(=O)nc(NCc3cnc(C)cc3C)n(Cc3ccccc3OC(F)(F)F)c2=O)cc1 [Cpd 105]	85%	6.36	–
CCOc1ccc(Cn2c(=O)nc(NCc3cnc(C)cc3C)n(Cc3ccc(OC)cc3)c2=O)cc1 [Cpd 107]	89%	6.06	–
COc1ccc(Cn2c(NCc3cnc(C)cc3C)nc(=O)n(Cc3ccc([N+](=O)[O-])cc3)c2=O)cc1 [Cpd 108]	42%	< 5.00	–
C=CCC(c1ccc(OC)cc1)n1c(=O)nc(NCc2cnc(C)cc2C)n(Cc2ccc(OC)cc2)c1=O (centres unmarked) [Cpd 109]	89%	6.17	–
COc1ccc(Cn2c(NCc3cnc(C)cc3C)nc(=O)n(Cc3ccc(C(F)(F)F)cc3)c2=O)cc1 [Cpd 110]	48%	5.04	–
COc1ccc(Cn2c(NCc3cnc(C)cc3C)nc(=O)n(Cc3cccc(OC)c3)c2=O)cc1 [Cpd 111]	57%	5.10	–
COc1ccc(Cn2c(NCc3cnc(C)cc3C)nc(=O)n(Cc3cccc(F)c3)c2=O)cc1 [Cpd 112]	74%	5.59	–
COC(=O)c1ccc(Cn2c(=O)nc(NCc3cnc(C)cc3C)n(Cc3ccc(OC)cc3)c2=O)cc1 [Cpd 114]	48%	5.20	–
COc1ccc(Cn2c(NCc3cccc(N)n3)nc(=O)n(Cc3ccc(OC)cc3)c2=O)cc1 [Cpd 115, 6-[(6-Amino-pyridin-2-ylmethyl)-amino]-1,3-bis-(4-methoxy-benzyl)-1H-[1,3,5]triazine-2,4-dione]	98%	6.61	–
COc1ccc(Cn2c(=O)nc(NCc3cnc(C)cc3C)n(Cc3ccc(F)cc3)c2=O)cc1 [Cpd 116]	95%	6.41	–
COc1ccc(Cn2c(=O)nc(NCc3cnc(C)cc3C)n(Cc3ccc(Cl)cc3)c2=O)cc1 [Cpd 117]	97%	6.66	–
COc1ccc(Cn2c(NCc3c[n+]([O-])c(C)cc3C)nc(=O)n(Cc3ccc(OC)cc3)c2=O)cc1 [Cpd 118]	80%	5.86	–
COc1ccc(Cn2c(NCc3cccnc3N)nc(=O)n(CCc3c[nH]c4ccccc34)c2=O)cc1 [Cpd 119]	40%	< 5.00	–
COc1ccc(Cn2c(NCc3cccnc3N)nc(=O)n(CC3COc4ccccc4O3)c2=O)cc1 (centres unmarked) [Cpd 120]	40%	< 5.00	–
COc1ccc(Cn2c(OCc3cccnc3)cc(=O)n(Cc3ccc(OC)cc3)c2=O)cc1 [Cpd 121, 1,3-Bis-(4-methoxy-benzyl)-6-(pyridin-3-ylmethoxy)-1H-pyrimidine-2,4-dione]	58%	5.20	–
COc1ccc(Cn2c(NCc3ccc(C(F)(F)F)nc3)nc(=O)n(Cc3ccc(OC)cc3)c2=O)cc1 [Cpd 122]	76%	6.71	–
COc1ccc(Cn2c(NCc3cnc(C)cc3C)nc(=O)n(Cc3ccc4c(c3)CCO4)c2=O)cc1 [Cpd 123, 3-(2,3-Dihydro-benzofuran-5-ylmethyl)-6-[(4,6-dimethyl-pyridin-3-ylmethyl)-amino]-1-(4-methoxy-benzyl)-1H-[1,3,5]triazine-2,4-dione]	83%	6.16	–
COc1ccc(Cn2c(NCc3cccnc3N)nc(=O)n(Cc3ccc(OC)c([N+](=O)[O-])c3)c2=O)cc1 [Cpd 124]	61%	6.09	–
COc1ccc(Cn2c(=O)nc(NCc3cccnc3N)n(Cc3ccc4c(c3)CCO4)c2=O)cc1 [Cpd 125]	97%	7.27 and 7.85	99%
COc1ccc(Cn2c(=O)nc(NCc3cccnc3N)n(Cc3ccc4occc4c3)c2=O)cc1 [Cpd 126]	89%	6.63	–
COc1ccc(Cn2c(=O)nc(NCc3cccnc3N)n(Cc3ccc4[nH]ccc4c3)c2=O)cc1 [Cpd 127]	81%	6.22	–

SMILES	inhibition at 10 µM	pIC50	Ca^2+ Mobilization % Inh @ 10 μM
COc1ccc(Cn2c(=O)nc(NCc3cnc(C)cc3C)n(Cc3ccc4c(c3)CCO4)c2=O)cc1 [Cpd 128]	93%	6.90 and 6.67	98%
COc1ccc(Cn2c(=O)nc(NCc3cnc(C)cc3C)n(Cc3ccc4occc4c3)c2=O)cc1 [Cpd 129]	88%	6.92	–
COc1ccc(Cn2c(=O)nc(NCc3cnc(C)cc3C)n(Cc3ccc4[nH]ccc4c3)c2=O)cc1 [Cpd 130]	92%	6.61	–
COc1ccc(Cn2c(=O)nc(NCc3cccnc3N)n(Cc3ccc(S(C)(=O)=O)cc3)c2=O)cc1 [Cpd 131]	100%	6.91	–
COc1ccc(Cn2c(=O)nc(NCc3cnc(C)cc3C)n(Cc3ccc(S(C)(=O)=O)cc3)c2=O)cc1 [Cpd 132]	79%	6.61	–
COc1ccc(Cn2c(NCc3cnc(C)cc3C)nc(=O)n(Cc3ccc4occc4c3)c2=O)cc1 [Cpd 133]	88%	6.24	–
COc1ccc(Cn2c(NCc3cccnc3N)nc(=O)n(Cc3ccc4occc4c3)c2=O)cc1 [Cpd 134]	86%	6.65	–
COc1ccc(Cn2c(=O)nc(NCc3cccnc3N)n(Cc3ccc(OC(C)(C)C)cc3)c2=O)cc1 [Cpd 135]	94%	6.73	–
COc1ccc(Cn2c(=O)nc(NCc3cnc(C)cc3C)n(Cc3ccc(OC)c([N+](=O)[O-])c3)c2=O)cc1 [Cpd 136]	92%	7.82 and 7.47	102%
COc1ccc(Cn2c(=O)nc(NCc3cccnc3N)n(Cc3ccc(OC)c([N+](=O)[O-])c3)c2=O)cc1 [Cpd 137]	68%	5.98	–
COc1ccc(Cn2c(=O)nc(NCc3cccnc3N)n(Cc3cccc4[nH]ccc34)c2=O)cc1 [Cpd 138]	61%	5.82 and 5.57	73%
COc1ccc(Cn2c(=O)nc(NCc3cnc(C)cc3C)n(Cc3cccc4[nH]ccc34)c2=O)cc1 [Cpd 139]	92%	–	97% and 100%
COc1ccc(Cn2c(=O)nc(NCc3cccnc3N)n(Cc3ccc4sccc4c3)c2=O)cc1 [Cpd 140]	91%	6.72	–
COc1ccc(Cn2c(NCc3cccnc3N)nc(=O)n(CCOc3ccc(F)cc3)c2=O)cc1 [Cpd 141, 6-[(2-Amino-pyridin-3-ylmethyl)-amino]-3-[2-(4-fluoro-phenoxy)-ethyl]-1-(4-methoxy-benzyl)-1H-[1,3,5]triazine-2,4-dione]	82%	5.95	–
COc1ccc(Cn2c(=O)nc(NCc3cnc(C)cc3C)n(Cc3ccc4sccc4c3)c2=O)cc1 [Cpd 142]	76%	6.41	–
COc1ccc(Cn2c(NCc3cccnc3N)nc(=O)n(Cc3ccccc3OC)c2=O)cc1 [Cpd 143]	31%	< 5.00	–
COc1ccc(Cn2c(NCc3cnc(C)cc3C)nc(=O)n(Cc3ccccc3OC)c2=O)cc1 [Cpd 144]	36%	< 5.00	–
COc1ccc(Cn2c(NCc3cccnc3N)nc(=O)n(Cc3ccc4sccc4c3)c2=O)cc1 [Cpd 145]	90%	6.50	–
COc1ccc(Cn2c(NCc3cnc(C)cc3C)nc(=O)n(Cc3ccc4sccc4c3)c2=O)cc1 [Cpd 146]	80%	5.67	–
CCCNc1cccc(CNc2nc(=O)n(Cc3ccc(OC)cc3)c(=O)n2Cc2ccc(OC)cc2)n1 [Cpd 147, 1,3-Bis-(4-methoxy-benzyl)-6-[(6-propylamino-pyridin-2-ylmethyl)-amino]-1H-[1,3,5]triazine-2,4-dione]	99%	6.96	–
COc1ccc(Cn2c(NCc3cccc(N)n3)cc(=O)n(Cc3ccc(OC)cc3)c2=O)cc1 [Cpd 148, 6-[(6-Amino-pyridin-2-ylmethyl)-amino]-1,3-bis-(4-methoxy-benzyl)-1H-pyrimidine-2,4-dione]	86%	6.30	–
COc1ccc(Cn2c(=O)nc(NCc3cccnc3N)n(CC3CCC(OC)CC3)c2=O)cc1 (centres unmarked) [Cpd 149]	86%	6.10	–
COc1ccc(Cn2c(=O)nc(NCc3cnc(C)cc3C)n(CC3CCC(OC)CC3)c2=O)cc1 (centres unmarked) [Cpd 150]	78%	6.23	–
